Measurements as given in US11299515B2, “Optimized peptides for targeting human nerves and their use in image guided surgery, diagnostics and therapeutic” (The Regents of the University of California, priority 2017, dated 2022).
Residues, ends and D or L forms follow the SMILES beside them. *: point of attachment. Fluorescein(5-Mal) = O=C1OC2(c3ccc(O)cc3Oc3cc(O)ccc32)c2ccc(N3C(=O)CC(*)C3=O)cc21

Columns and labels:
human sural nerve = experiment: Topical application of FAM-labelled peptides on human nerve sections; format: binding
From the text: To determine the affinity of phage selected peptides for binding to human nerve they were chemically synthesized by solid-phase synthesis and labeled with fluorescein at the C-terminus via a GGC linker. Peptides were topically applied to sectioned human sural nerve and human temporalis muscle to determine nerve to muscle contrast. […] To confirm binding and contrast of HNP401 for additional nerve types binding was compared in nerve and muscle with both HNP401 and NP41 on facial brachial plexus nerve (FIG. 9). […] FAM-HNP401 was additionally tested topically on ex-vivo tissue for labeling of mouse facial nerve with surrounding muscle (FIG. 10, J-M).
To test the affinity of selected phage display peptides for binding to human nerves, they were chemically synthesized by solid-phase synthesis and labeled with fluorescein at the C-terminus. Peptides were topically applied to sections of surgically harvested human sural nerve and temporalis muscle to determine nerve to muscle contrast for selected peptides and controls (FIG. 23). […] To quantify differential binding to nerve versus muscle, fluorescence signal intensity was measured for ROIs from the perineurium of select nerves and human temporalis muscle.
Human sural nerve, antebrachial nerve and laryngeal nerve and temporalis muscle were obtained under IRB protocol number 130837 for Dr. Quyen Nguyen. Human peripheral nerves (typically sural) were obtained from patients undergoing nerve resection procedures. Human nerves from prostate gland of two patients were acquired under Moores Cancer Centre Biorepository IRB protocol number 090401. Tissue were sectioned and mounted on glass slides or Cryojane tape. Tissue sections were placed in a humidifier chamber for 30 min before application of the peptide solution. Peptides were diluted to appropriate concentration in 0.5×HBSS prior to topical application. 50 μl of peptide solution of with known concentration (1 μM to 375 μM) were applied to 10 μm nerve sections on tape or slides and incubated for 30 minutes in a humidifier chamber. After incubation with peptide nerve sections were washed with twice with 0.5×HBSS and once with 1×PBS. A cover-slip was applied and slides were imaged immediately on either a Zeiss Lumar dissecting scope of Nikon A1 confocal microscope. For confocal imaging tissue sections of 10 μm thickness were imaged with 488 nm laser excitation 515 (25) and a 10× air objective and a […] size. For immunohistochemistry the confocal Images were acquired with a 20× air objective at 0.4 μm/pixel.
Image J was used to analyze and compare images acquired using the confocal microscope and the Lumar dissecting scope. For each experimental set where probes were compared, we kept the acquisition parameters identical so as to directly compare the data obtained. […] All raw image files for a given experimental cohort were loaded at the same time into Image J as 16-bit tiff images. We then levelled the image for tissue treated with FAM-HNP401. Once these levels were set, the settings are propagated to all images in one step using Image J. The brightest image is set as the benchmark for all other images in the cohort to avoid saturating when the leveling is propagated.

in vivo = details: male, SKH, mouse, whole blood, iv, 100 nmol
Method: Five 8-week-old SKH male mice were injected intravenously with 100 nmol [10.75 mg/kg for 25 gm mouse] of FAM-HNP401 in 100 μl of sterile water. Prior to blood draw mice were anesthetized with a 1:1 cocktail of ketamine: midazolam. Tail pricks were performed at 1 min, 10 min, 20 min, 30 min, 1 hr, and 2 hrs after injection to collect 5 μl whole blood which was dissolved in 100 μl Agilent ICP-MS tuning buffer. Samples were centrifuged and equal volume of supernatants were analyzed using a Tecan fluorescence plate reader.

sciatic nerve = format: in vivo, mice; details: 450 nmols i.v., SKH1 mice
Method: Either 150 or 450 nmoles of fluorescein labeled synthetic peptides were injected intravenously into mice. After a 2 hour waiting period for washout of nonspecific binding, mice were anesthetized and skin incisions were made over the dorsal surface of the hind legs to expose the sciatic nerve. Brightfield and fluorescent images were obtained with a dissecting microscope using Metamorph software (FIG. 1). Quantitation of fluorescence of nerves and adjacent non-nerve tissue was performed with Image J (FIG. 2). Peptides were also topically applied to human nerve sections. Nerves were freshly frozen in OTC prior to sectioning. Peptides were topically applied at concentration at 300 uM with images being shown for HNP401, HNP402, HNP404 and previous reported nerve binding peptides NP41 (FIG. 3)). Also shown are images for variants HNP301 ([…]) and NP124. NP713 was also tested and has not reported in a publication. NP713, is a derivative of NP41 with sequence […] that was enriched after 7 rounds of selection against mouse tissue, and was also found after 4 rounds of selection against human tissue. […] All D-amino acid controls for NP-41 and NP713 and non peptide conjugated carboxyfluorescein, are also shown. […] HNP401 was then tested for labeling of rat sciatic and rat prostate cavernosal nerve in-vivo. […] FIGS. 6 and 7 show in-vivo labeling of rat prostate cavernosal nerve with comparison to white light visualization.
Following anesthesia with intra-peritoneal injection of ketamine (80 mg/kg) and midazolam (40 mg/kg), FAM-NP41 or its variants were administered into mice retro-orbitally. After a washout period of 2-4 hours, the animals were anesthetized with ketamine (50 mg/ml) and xylazine (20 mg/ml). The bladder and prostate were exposed through a midline abdominal incision. The autonomic nerve along the cavernosal vessel in the prostate was imaged and recorded using a custom-made surgical imaging system. This system is a modified from Olympus MVX10 scope capable of hi-resolution fluorescence, RGB reflectance and realtime overlay with zoom from 0.6 to 5.7 cm field of view. Image) was used for quantitative analysis of nerve contrast for each peptide dye conjugate tested. Images of autonomic nerve in prostate were selected from the recorded files and magnified 300-400% prior to selection of ROI and measurement. Nerves and adjacent non-nerve tissues ROIs were hand-selected using polygonal selection tool at the same location from both of reflectance and fluorescence images. The mean and standard deviation of the pixel intensities within the selected areas were compared for nerves (mean=In, SD=σn) and adjacent background tissue (mean=Ib, SD=σb). Nerve to non-nerve contrast was calculated after background subtraction with formula |In−Ib|/(σn^2+σm^2)^0.5. For imaging the nerves in the prostate gland of male rats peptide dye conjugate were injected retro-orbitally. FAM-HNP401 was injected at a concentration of 13 mgs/kg followed by imaging after 15 minutes or alternatively a dose of 52 mgs/kg was used with imaging after 3 hours. Live animal surgery was performed under a ketamine-xylazine cocktail according to IACUC protocol. Sterile technique was used to expose the prostate; bladder was drained with a small syringe and sutured. The surgical field was washed with sterile saline prior to imaging. Mann-Whitney test was used to analyze data for both mice and rats to compare nerve intensity and nerve to non-nerve contrast between white light reflectance and fluorescence.

CC(=O)N[C@@H](CO)C(=O)NCC(=O)N[C@@H](CCC(N)=O)C(=O)N[C@H](C(=O)N1CCC[C@H]1C(=O)N[C@@H](Cc1c[nH]c2ccccc12)C(=O)N[C@@H](CCC(=O)O)C(=O)N[C@@H](CCC(=O)O)C(=O)N1CCC[C@H]1C(=O)N[C@@H](Cc1ccc(O)cc1)C(=O)N[C@@H](Cc1ccc(O)cc1)C(=O)N[C@H](C(=O)N[C@H](C(=O)N[C@@H](CCCCN)C(=O)N[C@@H](CCCCN)C(=O)N[C@@H](CO)C(=O)N[C@@H](CO)C(=O)NCC(=O)NCC(=O)N[C@@H](CSC1CC(=O)N(c2ccc3c(c2)C(=O)OC32c3ccc(O)cc3Oc3cc(O)ccc32)C1=O)C(N)=O)C(C)C)C(C)C)C(C)C (stereo partly drawn) [FAM-HNP401] (Ac-SGQVPWEEPYYVVKKSSGGC(Fluorescein(5-Mal))-NH2; N-terminus and C-terminus assumed)
fluorescent signal intensity compared to FAM-NP41 (human sural nerve; 100 μM topical, human sural nerve): 10.9 ×
fluorescent signal intensity (ROIs of perineurium) (human sural nerve; 100 μM topical, n=4): 1374.44±425.96
binding / contrast among peptides and controls screened on human nerve (human sural nerve; 100 μM topical, sural nerve and temporalis muscle): highest contrast
Nerve to muscle contrast (human sural nerve; human sural nerve vs human temporalis muscle, 100 μM topical, n=4): 3.03±0.57
signal for binding human nerve compared to FAM-NP41 (human sural nerve; topical, human nerve): 10 fold
half-life (in vivo): 30 min
signal intensity for in-vivo binding to mouse sciatic nerve compared to FAM-NP41 (sciatic nerve): 2.3 ×
sciatic nerve fluorescent intensity compared to NP41 (sciatic nerve; 2 h post injection): 2.3 fold
nerve to surrounding muscle contrast (sciatic nerve; mouse thigh): 5.79±0.81
